Reference: patent publication US20140005188A1, “PYRIDO[3,4-B]PYRAZINE DERIVATIVES AS SYK INHIBITORS” (GLAXO GROUP LIMITED, priority 2011, published 2014)
Where a name gives a salt, the structure may show the parent alone.

Columns and labels:
SYK = target: T1, SYK (Homo sapiens, UniProt P43405); test: biochemical; conditions: SYK lysate from anti-IgM stimulated Ramos B cells, Y7 Sox peptide 5 μM, ATP 35 μM; read-out: average plC50
T1 construct: The cell pellet was then lysed in ice-cold lysis buffer containing 1% triton-x-100; endogenous in cells; host or cells: Ramos B cells (human Burkitt's lymphoma, clone 296.4C10, ATCC), stimulated with anti-IgM antibody, clarified Triton X-100 lysate
Procedure: 1. Basic SYK Enzyme Activity
3 μl of SYK lysate diluted 16-fold in assay buffer (20 mM TRIS pH 7.4, 0.01% BSA, 0.1% Pluronic F-68) was added to wells containing 0.1 μl of various concentrations of compound or DMSO vehicle (1.7% final) in a Greiner low volume 384 well black plate. […]
i. Preparation of Ramos Cell Lysates
Cells were grown in Corning Cellstacks (6360 cm^2) in 1 litre volume and viability and cell density were monitored daily. Cells were maintained at <1.5×10e6/ml and >92% viability ii. Stimulation of Ramos Cells with Anti-IgM Ab to Produce Syk & Preparation of Lysates Cells were stimulated at 20×10^6 cells/ml using 15 ug/ml (final concentration) anti-IgM antibody. Following harvest (as described above), a total of 4×10^9 cells were resuspended in 180 mls pre-warmed (37° C.) DPBS in a Corning 500 ml centrifuge bottle. 20 mls anti-IgM antibody at 150 ug/ml were added to each 500 ml centrifuge bottle. (working stock made up in DPBS pre-warmed to 37° C.). Cells were incubated for exactly 5 minutes at 37° C. following the addition of anti IgM antibody. Following 5 minutes stimulation, 300 mls ice-cold DPBS were added to each bottle to stop the stimulation (temperature drops to ˜12 deg C.) then cells were centrifuged at 2000 rpm (Sorvall Legend RT+centrifuge—pre-chilled to 4 deg C.). Cells were washed by resuspension in ice-cold DPBS and centrifugation as above. The cell pellet was then lysed in ice-cold lysis buffer containing 1% triton-x-100 at a ratio of 150 ul/1×10^7 cells (i.e. […] lysis buffer). Following the addition of lysis buffer, the cells were pipetted up & down & kept on ice for 15 minutes. The clarified lysate was then obtained by centrifugation (Sorvall Evolution RC (SLA-1500 rotor, ˜20,000 g (˜14,500 rpm), 45 min, 4° C.).
Lysate was aliquoted, snap-frozen on dry-ice & stored at −80° C. prior to assay.

[1] = cited from earlier work
B lymphoma (BKS-2) = conditions: murine BKS-2 B lymphoma model; cited from earlier work

SMILES	IC50 (SYK) [µM]	further results
CC1CCC(CNc2nc(-c3cnn(C)c3)cc3nccnc23)CN1 (single isomer, unassigned) [Example 176, 7-(1-methyl-1H-pyrazol-4-yl)-N-[(6-methylpiperidin-3-yl)methyl]pyrido[3,4-b]pyrazin-5-amine hydrochloride, single unknown enantiomer]	≤ 10	–
O=C1CN(c2cc3nccnc3c(NC[C@H]3CCCNC3)n2)CCN1 [Example 30, 4-(5-{[(3S)-3-piperidinylmethyl]amino}pyrido[3,4-b]pyrazin-7-yl)-2-piperazinone, hydrochloride]	≤ 10	–
Cn1nccc1-c1cc2nccnc2c(NC[C@@H]2CNCCO2)n1 [Example 92, 7-(1-methyl-1H-pyrazol-5-yl)-N-[(2S)-morpholin-2-ylmethyl]pyrido[3,4-b]pyrazin-5-amine hydrochloride]	≤ 10	–
COc1cncc(-c2cc3nccnc3c(NCC3(F)CCCNC3)n2)c1 (stereo not drawn) [Example 128, N-[(3-fluoropiperidin-3-yl)methyl]-7-(5-methoxypyridin-3-yl)pyrido[3,4-b]pyrazin-5-amine]	≤ 10	–
Cc1noc(C)c1-c1cc2nccnc2c(NCC2(F)CCCNC2)n1 (stereo not drawn) [Example 157, 7-(dimethyl-1,2-oxazol-4-yl)-N-[(3-fluoropiperidin-3-yl)methyl]pyrido[3,4-b]pyrazin-5-amine hydrochloride]	≤ 10	–
Fc1ccc(-c2cc3nccnc3c(NCC3(F)CCCNC3)n2)c(F)c1 (stereo not drawn) [Example 166, 7-(2,4-difluorophenyl)-N-[(3-fluoropiperidin-3-yl)methyl]pyrido[3,4-b]pyrazin-5-amine]	≤ 10	–
COc1cc(Nc2ncc(F)c(Nc3ccc4c(n3)N(COP(=O)(O)O)C(=O)C(C)(C)O4)n2)cc(OC)c1OC [Example R788, fostamatinib disodium]	–	therapeutic benefit ([1]; patients with DLBCL and CLL/SLL): therapeutic benefit; tolerability ([1]; patients with relapsed or refractory B-Cell NHL): well-tolerated
COc1cc(/C=C/C(=O)CC(=O)/C=C/c2ccc(O)c(OC)c2)ccc1O [curcumin]	–	tumour burden as measured by the total splenocyte number (B lymphoma (BKS-2)): significant reduction
